Experimental data reported in patent US7553856B2, “Crystalline form of omeprazole” (Lek Pharmaceuticals d.d., priority 2001, dated 2009).

What was measured:
[1] = compared to previously-known omeprazole form B; cited from earlier work
[2] = Stability testing of omeprazole samples under stress/accelerated aging, evaluated by absorbance (Ph Eur); format: physicochemical; details: omeprazole form C obtained by the disclosed process; no numerical data printed
Protocol: The stability of omeprazole samples was determined by a standard procedure for testing the substances in pharmaceutical industry (CPMP/ICH/2736/99). […] Determination of absorbance, measured according to Ph Eur method (PhEur 3 Suppl 2000), is used as the criterion for evaluation of the sample quality during stability testing.

In the case of `COc1ccc2[nH]c([S+]([O-])Cc3ncc(C)c(OC)c3C)nc2c1` (stereo not shown) [omeprazole form A, 5-methoxy-2-[[(4-methoxy-3,5-dimethyl-2-pyridinyl)methyl]sulfinyl]-1H-benzimidazole], the hygroscopicity [1] is listed as “better”, the photostability [1] is listed as “better” and the thermodynamic stability [1] is listed as “better”.

For `COc1ccc2[nH]c([S+]([O-])Cc3ncc(C)c(OC)c3C)nc2c1` (stereo not shown) [omeprazole form C, 5-methoxy-2-[[(4-methoxy-3,5-dimethyl-2-pyridinyl)methyl]sulfinyl]-1H-benzimidazole], the “stability according to the standard protocol for characterization of stability of a pharmaceutical active substance” value [2] was “stable according to the standard protocol”.
